Measured values reported in PubChem BioAssay (NCI).
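Values below derive from 48-hour exposures of cells grown in 96-well plates, with endpoints linearly interpolated between the two concentrations bracketing the appropriate inhibition level. GI50: concentration for 50% inhibition of growth. TGI: concentration producing complete growth inhibition.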

Columns and labels:
Experiment in all cases: NCI anticancer screen, dose series, 48 h
[1] = test system: SK-MEL-2 melanoma
[2] = test system: COLO 205 colon
[3] = test system: OVCAR-8 ovarian
[4] = test system: EKVX NSCLC
[5] = test system: TK-10 renal
[6] = test system: IGROV1 ovarian
[7] = test system: NCI-H460 lung
[8] = test system: MDA-MB-435
[9] = test system: HS 578T breast
[10] = test system: DU-145 prostate

SMILES	TGI [1] [µM]	TGI [2] [µM]	TGI [3] [µM]	TGI [4] [µM]	TGI [5] [µM]	TGI [6] [µM]	TGI [7] [µM]	GI50 [1] [µM]	GI50 [2] [µM]	GI50 [3] [µM]	GI50 [8] [µM]	TGI [8] [µM]	GI50 [5] [µM]	GI50 [9] [µM]	TGI [9] [µM]	GI50 [6] [µM]	GI50 [10] [µM]	TGI [10] [µM]	GI50 [7] [µM]	GI50 [4] [µM]
CN1CCN(c2nc(N)c(Br)c(Cl)n2)CC1	> 100	> 100	> 100	> 100	> 100	> 100	> 100	–	–	–	–	–	–	–	–	–	–	–	–	–
CC(C)(C)[Si](C)(C)OC1[C@@H](COC(=O)NC(=O)CCl)O[C@@H](n2cnc3c(N)ncnc32)[C@H]1O[Si](C)(C)C(C)(C)C (some centres undefined)	13.8	4.79	4.45	–	16.1	1.67	14.9	6.72	1.9	1.42	2.35	8.89	9.14	7.62	19.3	0.783	5.75	12	7.22	–
CC(=O)CC(=O)Nc1ccccc1C(F)(F)F	> 100	> 100	> 100	> 100	> 100	> 100	> 100	–	–	–	–	–	–	–	–	–	–	–	–	–
CC(=O)[CH-]C(=O)c1ccccc1.CC(=O)[CH-]C(=O)c1ccccc1.CC(=O)[CH-]C(=O)c1ccccc1.[Ga+3]	23.6	32.3	29.2	57.6	68.6	46.4	28.7	10.8	17.7	14.8	–	–	24	–	–	18.6	–	–	11.8	22.7
CC12O[C@H](C[C@@H](OC(=O)CCC(=O)O)[C@H]1O)n1c3ccccc3c3c4c(c5c6ccccc6n2c5c31)C(=O)NC4=O	16.5	5.26	> 50	> 50	10.9	38.8	12.2	0.464	0.902	2.65	0.708	7.08	0.411	2.43	28.4	0.664	–	–	1.46	7.28
Cc1ccc(Nc2nc(-c3ccc(-c4ccc([N+](=O)[O-])cc4)o3)cs2)cc1	> 100	> 100	> 100	–	> 100	> 100	> 100	–	–	–	–	–	–	–	–	–	–	–	–	–
COc1ccc(C(=O)C(C(=O)C(=O)NCCCNC(=O)C(=O)C(C(=O)c2ccc(OC)cc2)c2ccc(OC)cc2)c2ccc(OC)cc2)cc1 (centres undefined)	> 100	> 100	> 100	> 100	> 100	> 100	> 100	–	–	–	–	–	–	–	–	–	–	–	–	–
Cc1cc(Br)ccc1N=Nc1c(C)nn(-c2ccccc2)c1-c1ccccc1	> 100	> 100	> 100	> 100	> 100	> 100	> 100	–	–	–	–	–	–	–	–	–	–	–	–	–
CCN(CC)c1ccc(C2N3CCCCC3[C@@H]3c4[nH]c5ccccc5c4CCN23)cc1 (some centres undefined)	–	93.2	> 100	> 100	86.1	> 100	55.5	–	–	–	–	–	–	–	–	–	–	–	–	–
CN(C)N=Nc1ccc(S(N)(=O)=O)cc1	> 100	> 100	> 100	> 100	> 100	> 100	> 100	–	–	–	–	–	–	–	–	–	–	–	–	–
CCN1C(=O)N(CC)C2C1N=C(SC)N2/N=C/C=C/c1ccccc1OC (centres undefined)	> 39.3	–	> 45	> 56.6	> 58.7	> 45.1	> 34.3	1.2	0.324	0.438	–	–	1.09	0.422	> 56.4	0.618	0.428	> 45.3	0.341	0.581
CC12CCc3ccccc3C1=NNC(=O)C2 (centres undefined)	> 100	> 100	> 100	> 100	> 100	> 100	> 100	–	–	–	–	–	–	–	–	–	–	–	–	–
CC1=C2C=CC(=O)C[C@@]2(C)CCC1	> 100	> 100	> 100	> 100	> 100	> 100	> 100	–	–	–	–	–	–	–	–	–	–	–	–	–
COc1cc(-c2ccc[nH]2)[nH]c1/C=C1\N=C(C)C(CC(=O)OCC(C)(C)C)=C1C	0.415	1.22	1.44	1.7	1.19	–	1.35	0.157	0.206	0.321	0.282	1.2	0.326	0.256	1.91	–	0.226	1.53	0.137	0.0903
COc1cc(O)c(C(=O)/C=C/c2ccc(OC)c(OCc3ccccc3)c2)c(OC)c1	> 100	2.09	> 100	> 100	> 100	> 100	> 100	–	–	–	–	–	–	–	–	–	–	–	–	–
NC(=O)c1ncn(C2OC(CO)C(O)C2O)c1O (centres undefined)	> 100	–	> 100	> 100	> 100	> 100	> 100	–	–	–	–	–	–	–	–	–	–	–	–	–
COc1ccc2c(c1)-c1c(c3cc(OC)ccc3n(CCN(C)C)c1=O)C2=O	–	4.7	5.59	10.2	6.98	2.31	2.09	–	0.461	0.31	0.95	5.73	1.65	1.7	7.81	0.243	0.565	3.54	0.341	1.37
CC(=O)OCC1OC(n2c(=S)n(-c3ccccc3)c(=O)c3cc(Br)ccc32)C(OC(C)=O)C1OC(C)=O (centres undefined)	> 100	> 100	> 100	> 100	–	> 100	> 100	–	–	–	–	–	–	–	–	–	–	–	–	–
O=C(C(=CN1CCN(C(=O)c2ccco2)C1=S)C(=O)c1ccccc1)c1ccccc1	25.6	> 50	41.4	21.4	22.1	40.9	11.6	12.1	20	16.2	7.24	18.7	6.87	–	–	5.58	12.4	> 50	2.35	8.06
O=C1[C@@H]2C(c3ccccc3[N+](=O)[O-])=NO[C@@H]2C(=O)N1c1ccc(Cc2ccc(N3C(=O)[C@H]4C(c5ccccc5[N+](=O)[O-])=NO[C@H]4C3=O)cc2)cc1	–	> 100	> 100	> 100	> 100	> 100	> 100	–	–	–	–	–	–	–	–	–	–	–	–	–

SMILES	TGI [1] [µM]	TGI [2] [µM]	TGI [3] [µM]	TGI [4] [µM]	TGI [5] [µM]	TGI [6] [µM]	TGI [7] [µM]	GI50 [1] [µM]	GI50 [2] [µM]	GI50 [3] [µM]	GI50 [8] [µM]	TGI [8] [µM]	GI50 [5] [µM]	GI50 [9] [µM]	TGI [9] [µM]	GI50 [6] [µM]	GI50 [10] [µM]	TGI [10] [µM]	GI50 [7] [µM]	GI50 [4] [µM]
Cc1c(-c2ccccn2)ccc2ccccc12	–	> 100	> 100	> 100	> 100	–	> 100	–	–	–	–	> 100	–	–	> 100	–	–	> 100	–	–
O=C1/C(=C/c2ccc([N+](=O)[O-])o2)Oc2ccc(Cl)cc21	3.83	4.08	> 22.1	–	3.85	4.5	15.4	1.93	1.89	2.06	1.99	4.5	2.14	2.95	> 27.6	1.92	2.25	4.88	3	–
O=C(N/C(=C\c1ccc(/C=C(\NC(=O)c2ccccc2)c2nc3c(O)nc(S)nc3[nH]2)cc1)c1nc2c(O)nc(S)nc2[nH]1)c1ccccc1	> 100	> 100	> 100	> 100	> 100	> 100	> 100	–	–	–	–	–	–	–	–	–	–	–	–	–
N#Cc1ccc(C2SCc3nc4ccccc4n32)cc1 (centres undefined)	> 100	> 100	> 100	> 100	> 100	> 100	> 100	–	–	–	–	–	–	–	–	–	–	–	–	–
CCCCCCCCN=C(NCCCCCCCC)SCc1cccc2ccccc12	3.77	2.95	3.11	3.49	3.2	–	3.38	2.14	1.48	1.64	1.58	3.03	1.74	1.61	3.81	–	1.8	3.29	1.69	1.79
COc1ccc2c(c1)/C(=N/OC(C)=O)c1c-2c(OC)nc2ccccc12	> 100	> 100	> 100	> 100	> 100	–	> 100	> 100	> 100	> 100	> 100	> 100	79.1	48.1	> 100	–	> 100	> 100	> 100	> 100
CCN(CC)C(=S)SS(C)(=O)=O	33.2	29.7	39.4	75.8	32.2	> 100	–	–	–	–	–	–	–	–	–	–	–	–	–	–
Cc1[nH]c2cc([N+](=O)[O-])ccc2c1[N+](=O)[O-]	31	33	79.8	49.6	75.8	> 100	70.3	–	–	–	–	–	–	–	–	–	–	–	–	–
Cc1ccc(-c2nc3sc(C)cn3c2/C=C2\C(=O)Nc3ccc(Cl)cc32)cc1	28.6	> 100	33.5	39.3	24.7	27.6	31.9	12.1	31	15.2	18	34.8	9.28	8.02	73.7	12.6	–	–	15.7	16
CCOC(=O)C1C(=O)CC(=O)C2CCCCC21 (centres undefined)	> 100	> 100	> 100	> 100	> 100	> 100	> 100	–	–	–	–	–	–	–	–	–	–	–	–	–
COC(=O)[C@@]12C3=NO[C@]1(C(=O)OC)C(O[Si](C)(C)C(C)(C)C)[C@@H](OC(C)=O)[C@@H](OC(C)=O)[C@@H]2[C@@H](OCc1ccccc1)CC3 (some centres undefined)	> 100	> 100	> 100	> 100	> 100	> 100	> 100	–	–	–	–	–	–	–	–	–	–	–	–	–
COc1ccc2c(c1)[n+]([O-])c(-c1ccccc1Cl)c(N)[n+]2[O-]	> 100	32.6	> 100	> 100	–	> 100	> 100	–	–	–	–	–	–	–	–	–	–	–	–	–
CC(=O)Nc1ccc(/C=c2\sc3nnc(-c4cccnc4)n3c2=O)cc1	46.4	29.8	32.1	55.2	57.3	32.5	30.9	–	–	–	–	–	–	–	–	–	–	–	–	–
Cc1ccc(S(=O)(=O)NNS(C)(=O)=O)cc1	> 100	> 100	> 100	> 100	> 100	> 100	> 100	–	–	–	–	–	–	–	–	–	–	–	–	–
Cc1ccc(S(=O)(=O)C2CC2(Cl)Cl)cc1 (centres undefined)	> 100	41.9	41	> 100	> 100	72.1	> 100	–	–	–	–	–	–	–	–	–	–	–	–	–
COc1ccc2nc3ccccc3c(NCCCCN(CCCl)CCCl)c2c1	2.06	–	0.625	–	–	17.7	0.69	–	–	–	–	21.4	–	–	> 22.1	–	–	–	–	–
CCCCOC(=O)NC(=O)c1cn(CCCOC(=O)CCCCCCCCC(=O)OCCCn2cc(C(=O)NC(=O)OCCCC)c(=O)n(C)c2=O)c(=O)n(C)c1=O	> 100	> 100	> 100	> 100	> 100	> 100	> 100	–	–	–	–	–	–	–	–	–	–	–	–	–
CCN(CC)c1c(C)nnn1C1OC(COC(C)=O)C(OC(C)=O)C(OC(C)=O)C1OC(C)=O (centres undefined)	–	> 100	> 100	> 100	> 100	> 100	> 100	–	–	–	–	–	–	–	–	–	–	–	–	–
O=C1Cc2cc(CCN3CCNCC3)c(Cl)cc2N1	> 100	> 100	> 100	> 100	–	–	> 100	15.2	19.7	36.8	2.77	14.2	–	1.57	> 100	–	19.9	> 100	22.9	0.358
O=C(Oc1c(Cl)cc(Cl)cc1Cl)c1ccccc1Nc1ccnc(C(F)(F)F)c1	> 100	> 100	49.9	13	28.4	> 100	> 100	31.1	6.24	3.04	–	–	3.41	–	–	> 100	–	–	3.38	3.31
